We go through five compounds from ChEMBL document CHEMBL1129964 (J Med Chem, 1997).

The structures appear in SMILES notation.

The target in one assay is Prothrombin (Homo sapiens, UniProt P00734). The experiment in a line: Binding affinity towards thrombin.
The next assay concerns the target Plasminogen (Homo sapiens, UniProt P00747). The experiment in a line: Binding affinity towards Plasmin.
For a further assay, the target named is Serine protease 1 (Homo sapiens, UniProt P07477). The experiment in a line: Binding affinity towards trypsin.
Sequence of Serine protease 1 (P07477 whole entry): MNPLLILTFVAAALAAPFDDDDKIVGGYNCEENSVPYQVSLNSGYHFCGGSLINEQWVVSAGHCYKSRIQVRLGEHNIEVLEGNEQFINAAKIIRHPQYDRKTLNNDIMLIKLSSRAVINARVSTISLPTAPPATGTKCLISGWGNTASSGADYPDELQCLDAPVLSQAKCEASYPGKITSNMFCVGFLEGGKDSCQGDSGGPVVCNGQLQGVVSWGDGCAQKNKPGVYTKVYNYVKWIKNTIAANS
Assay [1] addresses Tissue-type plasminogen activator (Homo sapiens, UniProt P00750). The experiment in a line: Binding affinity against tissue-type plasminogen activator receptor.

Sequence of Tissue-type plasminogen activator (P00750 whole entry): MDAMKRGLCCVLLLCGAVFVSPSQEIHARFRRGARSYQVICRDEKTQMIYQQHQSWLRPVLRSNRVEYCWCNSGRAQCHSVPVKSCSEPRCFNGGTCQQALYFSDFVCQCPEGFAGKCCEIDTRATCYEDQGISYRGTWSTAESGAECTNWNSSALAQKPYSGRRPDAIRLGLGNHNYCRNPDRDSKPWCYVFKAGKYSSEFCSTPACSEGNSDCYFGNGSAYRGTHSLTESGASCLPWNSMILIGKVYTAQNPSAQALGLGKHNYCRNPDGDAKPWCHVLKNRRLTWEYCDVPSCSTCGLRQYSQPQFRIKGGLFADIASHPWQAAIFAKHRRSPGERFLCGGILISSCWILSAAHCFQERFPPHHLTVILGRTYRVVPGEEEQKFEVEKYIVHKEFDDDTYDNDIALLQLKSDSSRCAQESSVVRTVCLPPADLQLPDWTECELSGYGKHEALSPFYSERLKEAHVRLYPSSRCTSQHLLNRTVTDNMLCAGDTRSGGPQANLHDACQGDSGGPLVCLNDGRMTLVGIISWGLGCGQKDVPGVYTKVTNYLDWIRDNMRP
Sequence of Plasminogen (P00747 97-580 limits assumed): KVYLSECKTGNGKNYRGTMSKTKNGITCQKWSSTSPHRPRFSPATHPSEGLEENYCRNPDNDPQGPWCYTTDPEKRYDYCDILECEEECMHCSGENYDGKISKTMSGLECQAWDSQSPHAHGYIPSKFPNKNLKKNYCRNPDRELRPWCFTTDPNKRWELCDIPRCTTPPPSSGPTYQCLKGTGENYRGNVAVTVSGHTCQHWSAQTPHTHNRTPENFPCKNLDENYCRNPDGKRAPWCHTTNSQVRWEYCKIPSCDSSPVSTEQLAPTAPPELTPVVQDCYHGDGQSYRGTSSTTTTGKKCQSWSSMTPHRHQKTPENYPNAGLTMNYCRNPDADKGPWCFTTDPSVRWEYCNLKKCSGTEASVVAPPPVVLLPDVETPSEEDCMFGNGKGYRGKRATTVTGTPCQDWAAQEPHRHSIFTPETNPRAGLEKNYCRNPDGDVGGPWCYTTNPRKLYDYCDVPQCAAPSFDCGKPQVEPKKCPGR
Sequence of Plasminogen (P00747 581-810 limits assumed): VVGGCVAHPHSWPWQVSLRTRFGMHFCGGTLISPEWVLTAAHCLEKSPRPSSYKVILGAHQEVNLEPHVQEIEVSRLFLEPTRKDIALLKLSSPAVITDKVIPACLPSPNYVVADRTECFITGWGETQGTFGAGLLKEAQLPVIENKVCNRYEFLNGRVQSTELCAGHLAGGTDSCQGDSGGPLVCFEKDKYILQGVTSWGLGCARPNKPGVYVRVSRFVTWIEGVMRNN

On to `CN[C@H](Cc1ccccc1)C(=O)N1CCC[C@H]1C(=O)NC[C@H]1CC[C@H](N)CC1`, for which the affinity on Prothrombin, expressed as Ki, was 5 nM. Same read-out and setting: the same measure for `CNC(=O)C(=O)[C@@H](NC(=O)[C@@H]1CCCN1C(=O)[C@@H](Cc1ccccc1)NC)[C@H]1CC[C@H](N)CC1`: 0.09 nM; for `NC1CCC(CNC(=O)[C@@H]2CCCN2C(=O)[C@@H](Cc2ccccc2)NS(=O)(=O)Cc2ccccc2)CC1` (stereo partly drawn): 0.4 nM.

`NC1CCC(CNC(=O)[C@@H]2CCCN2C(=O)[C@H](N)C(c2ccccc2)c2ccccc2)CC1` (stereo partly drawn) registered a Ki at Prothrombin of 0.1 nM. As for `NC1CCC(CNC(=O)[C@@H]2CCCN2C(=O)C(NS(=O)(=O)Cc2ccccc2)C(c2ccccc2)c2ccccc2)CC1` (stereo partly drawn), the Ki at Prothrombin turned out to be 0.0025 nM; at Plasminogen, 0.49 µM; on Serine protease 1, 0.004 µM; in assay [1] it was 6700 µM.

For orientation: Ki means a measure of affinity in units of concentration, obtained from inhibition or displacement. The low end stands for tighter binding, the high end for weaker binding.
